This is an account of results in patent US10597390B2, “Indoles for use in influenza virus infection” (Janssen Sciences Ireland UC, priority 2014, dated 2020).

Data set [1] deals with influenza virus A/Taiwan/1/86 (H1N1). The data set can be described thus: organism not typed. It is filed as cell-based. Conditions: MDCK, 72 h, CPE in MDCK cells, three days post-virus exposure, ATPlite.
Another data set is described as follows: in vitro. Conditions: dog, TOX MDCK CC50.

What is called melting point is the temperature of the solid-liquid transition. By IC50 is commonly meant the concentration that gives 50% inhibition. Read a low IC50 as inhibition by little substance. One may read the CC50 as the concentration at which the toxic effect on the cells reaches its halfway point. A high value points to better tolerance by the cells.

In turn, `O=C(N[C@@H]1CCC[C@H](Nc2nc(-c3c[nH]c4c(F)cc(Cl)cc34)ncc2F)C1)c1cnn[nH]1` [Compound 42] had a melting point of 280.1 °C. In data set [1], this compound showed an IC50 of 0.5 nM. In the data set “in vitro”, half-maximal cytotoxicity (CC50 at 3 days) was put at 3100 nM.
The corresponding values for `Cn1cnnc1C(=O)N[C@@H]1CCC[C@H](Nc2nc(-c3c[nH]c4c(F)cc(F)cc34)ncc2F)C1` [Compound 143] are 169.8 °C, 39 nM and 9900 nM.
The matching figures for `N#Cc1cc(F)c2[nH]cc(-c3ncc(F)c(N[C@H]4C5CCC(CC5)[C@@H]4C(=O)O)n3)c2c1` [Compound 171]: 211.6 °C, 6 nM and 700 nM.
The matching figures for `O=C(N[C@@H]1CCC[C@H](Nc2nc(-c3c[nH]c4c(F)cc(F)cc34)ncc2F)C1)c1ncn[nH]1` [Compound 114]: 289.8 °C, 430 nM and greater than 25000 nM.
`Cn1cc(C(=O)N[C@@H]2CCC[C@H](Nc3nc(-c4c[nH]c5c(F)cc(Cl)cc45)ncc3F)C2)nn1` [Compound 67] gave a melting point of 283 °C. In data set [1], this compound came in with an IC50 of 12 nM. This compound also came in with a cytotoxic concentration (CC50) at 3 days in the data set “in vitro” of 840 nM.
The matching figures for `O=C(N[C@@H]1CCC[C@H](Nc2nc(-c3c[nH]c4c(F)cc(F)cc34)ncc2F)C1)c1cscn1` [Compound 154]: 266.8 °C, 2 nM and 15900 nM.
The corresponding values for `N#Cc1cc(F)c(N[C@H]2CCC[C@@H](NC(=O)c3ncccc3F)C2)nc1-c1c[nH]c2c(F)cc(F)cc12` (racemic) [Compound 212] are 289 °C, 10 nM and greater than 25000 nM.
The matching figures for `Nc1n[nH]cc1C(=O)N[C@@H]1CCC[C@H](Nc2nc(-c3c[nH]c4c(F)cc(F)cc34)ncc2F)C1` [Compound 146]: 169.7 °C, 1 nM and 10700 nM.
In the case of `Nc1nc(C(=O)N[C@@H]2CCC[C@H](Nc3nc(-c4c[nH]c5c(F)cc(Cl)cc45)ncc3F)C2)cs1` [Compound 76], the melting point stood at 184.8 °C. In data set [1], this compound displayed a 50% inhibitory concentration (IC50) of 0.6 nM. The same compound showed a CC50 at 3 days in the data set “in vitro” of 2500 nM.
Consider `Cn1ncnc1C(=O)N[C@@H]1CCC[C@H](Nc2nc(-c3c[nH]c4c(F)cc(F)cc34)ncc2F)C1` [Compound 140], for which the melting point stood at 172.7 °C. The compound further returned an IC50 in data set [1] of 7 nM. In “in vitro”, this compound returned a 50% cytotoxic concentration (CC50) at 3 days greater than 25000 nM.
With `Cn1cc(C(=O)N[C@@H]2CCC[C@H](Nc3nc(-c4c[nH]c5c(F)cc(F)cc45)ncc3F)C2)cn1` [Compound 120], the melting point is greater than 300 °C. In addition, the IC50 in data set [1] was determined as 3 nM. Besides, in the data set “in vitro”, the 50% cytotoxic concentration (CC50) at 3 days was greater than 25000 nM.
`Cc1ncn(C)c1C(=O)N[C@@H]1CCC[C@H](Nc2nc(-c3c[nH]c4c(F)cc(Cl)cc34)ncc2F)C1` [Compound 45] returned a melting point greater than 300 °C. Besides, the concentration for half-maximal inhibition (IC50) in data set [1] was 33 nM. The compound also registered a CC50 at 3 days in the data set “in vitro” greater than 25000 nM.
The matching figures for `N#Cc1cc(F)c(N[C@@H]2CCC[C@H](NC(=O)[C@@H](O)c3ccccc3)C2)nc1-c1c[nH]c2c(F)cc(F)cc12` [Compound 214]: 255 °C, 670 nM and 2900 nM.
The matching figures for `Cc1[nH]nnc1C(=O)N[C@@H]1CCC[C@H](Nc2nc(-c3c[nH]c4c(F)cc(F)cc34)ncc2F)C1` [Compound 141]: 256.6 °C, 2 nM and 8400 nM.
The matching figures for `Cc1cc(F)c2[nH]cc(-c3nc(N[C@H]4CCC[C@@H](NC(=O)c5cn(C)cn5)C4)c(F)cc3C#N)c2c1` (racemic) [Compound 195]: greater than 250 °C, 20 nM and 6600 nM.
`CCn1nccc1C(=O)N[C@@H]1CCC[C@H](Nc2nc(-c3c[nH]c4c(F)cc(Cl)cc34)ncc2F)C1` [Compound 60] registered a melting point greater than 300 °C. The compound further displayed a 50% inhibitory concentration (IC50) in data set [1] of 2 nM. In “in vitro”, this compound displayed a CC50 at 3 days greater than 25000 nM.
The matching figures for `CC(=O)NCc1ccc(N[C@H]2CCC[C@@H](NC(=O)N3CCCC3)C2)nc1-c1c[nH]c2c(F)cc(F)cc12` (racemic) [Compound 260, N-((cis)-3-((5-(acetamidomethyl)-6-(5,7-difluoro-1H-indol-3-yl)pyridin-2-yl)amino)-cyclohexyl)pyrrolidine-1-carboxamide]: 235.8 °C, 610 nM and greater than 25000 nM.
As to `Cn1ccc(C(C)(C)C(CC(=O)O)Nc2nc(-c3c[nH]c4c(F)cc(F)cc34)c(C#N)cc2F)n1` (stereo not drawn) [Compound 236], the melting point came out at 246.9 °C. In data set [1], this compound displayed an IC50 of 86 nM. The compound further registered a cytotoxic concentration (CC50) at 3 days in “in vitro” of 1500 nM.
The corresponding values for `O=C(N[C@@H]1CCC[C@H](Nc2nc(-c3c[nH]c4c(F)cc(Cl)cc34)ncc2F)C1)c1ncn[nH]1` [Compound 69] are 293.5 °C, 2 nM and 8400 nM.
As for `Cn1cc(Br)nc1C(=O)N[C@@H]1CCC[C@H](Nc2nc(-c3c[nH]c4c(F)cc(F)cc34)ncc2F)C1` [Compound 128], the melting point stood at 176 °C. Besides, the half-maximal inhibitory concentration (IC50) in data set [1] stood at 10 nM. Besides, in “in vitro”, the CC50 at 3 days worked out at 5900 nM.
As to `CC1(C(CC(=O)O)Nc2nc(-c3c[nH]c4c(F)cc(F)cc34)c(C#N)cc2F)CCCC1` (stereo not drawn) [Compound 244, 3-((5-cyano-6-(5,7-difluoro-1H-indol-3-yl)-3-fluoropyridin-2-yl)amino)-3-(1-methylcyclopentyl)propanoic Acid], the melting point amounted to 150 °C. In data set [1], this compound returned an IC50 of 5 nM. Besides, the CC50 at 3 days in “in vitro” stood at 60 nM.
`Cc1cccnc1C(=O)N[C@@H]1CCC[C@H](Nc2nc(-c3c[nH]c4c(F)cc(F)cc34)ncc2F)C1` [Compound 101] had a melting point of 236 °C. Besides, in data set [1], the IC50 came to 10 nM. This compound also returned a 50% cytotoxic concentration (CC50) at 3 days in the data set “in vitro” greater than 20700 nM.
The corresponding values for `C=CCC(C)(C)C(CC(=O)O)Nc1nc(-c2c[nH]c3c(F)cc(F)cc23)c(C#N)cc1F` (stereo not drawn) [Compound 241, 3-((5-cyano-6-(5,7-difluoro-1H-indol-3-yl)-3-fluoropyridin-2-yl)amino)-4,4-dimethylhept-6-enoic Acid] are greater than 260 °C, 12 nM and 50 nM.
For `Cn1nc(N)cc1C(=O)N[C@@H]1CCC[C@H](Nc2nc(-c3c[nH]c4c(F)cc(Cl)cc34)ncc2F)C1` [Compound 68], the melting point turned out to be 267.2 °C. For the same compound, the 50% inhibitory concentration (IC50) in data set [1] was determined as 3 nM. In addition, the CC50 at 3 days in “in vitro” turned out to be 21000 nM.
The matching figures for `O=C(N[C@@H]1CCC[C@H](Nc2nc(-c3c[nH]c4c(F)cc(Cl)cc34)ncc2F)C1)c1c[nH]cn1` [Compound 63]: 245 °C, 2 nM and 8900 nM.
The matching figures for `O=C(N[C@@H]1CCC[C@H](Nc2nc(-c3c[nH]c4c(F)cc(F)cc34)ncc2F)C1)c1cc(Cl)ccn1` [Compound 99]: 86 °C, 12 nM and 10200 nM.
